Columns and labels:
thermoduric bacteria = assay: Thermoduric bacteria (laboratory pasteurization count) in raw milk under CO2 pressure (Example 1); assay type: cell-based; details: 4° C.
Procedure: (§1) Milk samples were mixed and 5 ml of milk added into the treatment and control vessels. The treatment vessel was connected to the apparatus and the control vessel closed off. Both vessels were placed in the water bath. When the desired temperatures were attained in both treatment and control vessels, CO2 was introduced through the bottom of the treatment vessel until the set pressure was reached. The CO2 pressure was maintained throughout the test period. When the desired time was reached, the CO2 inlet was turned off, the pressure release valve on the outlet line opened, and the pressure released in under one minute. After depressurization, the treatment and control vessels were removed from the water bath and their external surfaces were wiped dry, sanitized with 95% ethanol, detached from the apparatus and transferred into sterile containers for dilution and plating.
(§2) The progression of these counts (total, Coliform/E. coli and thermoduric bacteria) in the treatment and control samples was tracked by conducting checks on the total aerobic counts (SPC) on treatment days 4 and 6. Based on the levels of total counts on days 4 and 6, analyses of total coli forms/E. coli and thermoduric bacteria after day 6 were conducted either in 1-day or 2-day intervals. The control sample final count was measured on days 4 and 6.
(§3) Initial total, coliform, and thermoduric counts were each determined for control and treated samples. Thermoduric organisms were enumerated by the laboratory pasteurization count (LPC) method described in the Standard Methods for the Examination of Dairy Products (Houghtby et al., 1992). The 3M Petri film count plate (3M Microbiology Products, St. Paul, Minn.) was used to enumerate total coli forms and Escherichia coli in the raw, treated and control milk samples.

Escherichia coli = assay: E. coli count (Petrifilm) in raw milk under CO2 pressure (Example 1); assay type: cell-based; details: 4° C.
Procedure: as §1, §2, §3

Lactobacillus spp. = assay: Total Lactobacillus spp. on acidified MRS agar, raw milk under CO2 pressure (Example 1); assay type: cell-based; details: current study
Procedure: Raw milk from the T&R Center was monitored for changes in aerobic bacteria, gram-negative bacteria and total Lactobacillus spp. as follows: CO2 pressures of 0 (control), 68, 172, 344, 516 and 689 kPa, at 6.1° C. for 4-days. SPC, gram-negative bacteria and total Lactobacillus spp. were enumerated before (day 0) and after (day 4) treatment. Gram negative bacteria were enumerated on MacConkey Agar (Difco Manual, Becton Dickinson & Co., Sparks, Md.), a selective and differential media which can be used to discriminate between lactose fermenting and non-lactose fermenting gram-negative bacteria. Use of this media allows a one-step method of obtaining estimates of both coliform and non-coliform gram negative bacteria. Coliform bacteria may include species of Escherichia, Klebsiella and Enterobacter, potential pathogens and/or spoilage organisms. Non-coliform gram negative bacteria may include spoilage organisms such as pseudomonads or potential pathogens such as Salmonella spp. or Shigella spp. […]
For all microbiological assays, milk sample aliquots of 1 ml were used in dilution series. […] Representative and distinctive suspect colonies were gram stained, and confirmed gram positive bacilli colonies were counted as an estimate of total Lactobacillus spp.

[1] = pH of raw milk after CO2 pressure treatment (Example 1); assay type: physicochemical; details: for pH after treatment (6.6 before treatment): 6.1° C., 4 days; for pH of milk samples: 10° C.
Procedure: The pH of the treated and control milk samples (as measured at atmospheric pressure) was 6.6 to 5.9 at CO2 pressures≦516 kPa and 5.7 when treated at pressures≧516 kPa and 20° C. The pH of the treated and control milk samples, when treated at 10° C., was 5.5 at CO2 pressures≦516 kPa and 5.8 when treated at pressures≧516 kPa.

[2] = 689 kPa CO2 pressure, 4 days, raw milk
[3] = 689 kPa CO2 pressure, 6 days, raw milk
[4] = 689 kPa CO2 pressure, 8 days, raw milk
[5] = 689 kPa CO2 pressure, 9 days, raw milk

O=C=O [CO2, carbon dioxide]
Thermoduric Bacteria counts, Treated, 4 Days (thermoduric bacteria; [2]): 1.0 * 10^0 cfu/ml
Thermoduric Bacteria counts, Treated, 6 Days (thermoduric bacteria; [3]): 9.0 * 10^0m cfu/ml
Thermoduric Bacteria counts, Treated, 8 Days (thermoduric bacteria; [4]): 2.1 * 10^1n cfu/ml
Thermoduric Bacteria counts, Treated, 9 Days (thermoduric bacteria; [5]): 3.7 * 10^1o cfu/ml
total thermoduric bacteria counts in treated milk (thermoduric bacteria; 689 kPa, up to 9 days): Neither E. coli nor total thermoduric bacteria counts increased
E.coli counts, Treated, 4 Days (Escherichia coli; [2]): 1.7 * 10^1k cfu/ml
E.coli counts, Treated, 6 Days (Escherichia coli; [3]): 1.7 * 10^1k cfu/ml
E.coli counts, Treated, 8 Days (Escherichia coli; [4]): 1.7 * 10^1k cfu/ml
E.coli counts, Treated, 9 Days (Escherichia coli; [5]): 1.5 * 10^1k cfu/ml
E. coli counts in treated milk (Escherichia coli; 689 kPa, up to 9 days): Neither E. coli nor total thermoduric bacteria counts increased
populations of Lactobacillus after CO2 pressure treatment (Lactobacillus spp.): decreased
pH after treatment (6.6 before treatment) ([1]; 68 kPa): 5.9
pH after treatment (6.6 before treatment) ([1]; 344 kPa): 5.8
pH after treatment (6.6 before treatment) ([1]; 516 kPa): 5.5
pH of treated milk (initial value 6.6) ([1]; 689 kPa, 4° C., end of days 4, 6, 8 and 9): 5.5
pH of milk samples ([1]; CO2 pressures ≦516 kPa): 5.5
pH of milk samples ([1]; pressures ≧516 kPa): 5.8
pH of milk samples (measured at atmospheric pressure) ([1]; pressures ≧516 kPa, 20° C.): 5.7
